The source of these data is US20180207165A1, “METHODS AND COMPOSITIONS FOR STIMULATING BENEFICIAL BACTERIA IN THE GASTROINTESTINAL TRACT” (Rijksuniversiteit Groningen, priority 2012, published 2018).

One test deals with F. prausnitzii. Put plainly: Stability of F. prausnitzii synbiotic formulations after exposure to ambient air (CFU count). Details: species or system Faecalibacterium prausnitzii. Conditions: ingredient in lyophilized formulation. The protocol: To produce a formulation with living faecalibacteria that are stable for at least 24 h under aerobic conditions, series of experiments were performed with different combinations of ingredients. Faecalibacteria were grown overnight in broth culture medium, centrifuged and the pellet was washed with anaerobic phosphate buffered saline (PBS) and centrifuged again. The mixtures were frozen at −20° C. and subsequently lyophilized.
After lyophilizing, the formulations were exposed to air for the indicated time periods. The preparations were re-suspended in phosphate buffer and a 10 fold-dilution series was plated on anaerobic growth medium agar. The Colony-forming units were counted and compared with a non exposed t=0 time point.
The lyophilized granules obtained according to step 2 were stored in air tight containers under ambient aerobic conditions. For stability and viability studies granules were exposed to the ambient air at defined period up to 24 h. After aerobic exposures the granules were processed anaerobically under anaerobic tent. The granules were diluted and rehydrated in oxygen free phosphate buffered saline (pH 7.2) supplemented with 0.05% cysteine and ten-fold dilution series were plated on YCFAG agar medium. Colony forming units were determined by counting the colonies formed on the agar plates after 24 h of incubations at 37° C.

In a further test the test system is Enterococci. Kind of test: Riboflavin intervention trial: count of Enterococci in fecal samples. Format: in vivo, human. Conditions: during the intervention, 100 mg/day riboflavin. The protocol:
(§1) A human intervention study was performed to investigate the effect of riboflavin on the numbers of Faecalibacterium prausnitzii in the gut. A group of 8 volunteers (body weight 60 to 90 kg) were asked to take 1 oral dose of 100 mg riboflavin supplement per day for 14 days.
(§2) Two samples were taken in a period of two weeks before the intake, as baseline samples, two samples (one per week) were taken during the intake and one sample a week after intake. The number of F. prausnitzii and that of other bacterial groups were determined by FISH with a specific probes as describe before (Harmsen et al. Appl Environ Microbiol. 2002 June; 68(6):2982-90). The numbers of faecalibacteria of the samples taken before and during the intake were averaged and all samples were plotted in FIG. 1.

The subject of test [1] is Enterobacteriaceae, E. coli-like bacteria. Put plainly: Riboflavin intervention trial: count of E. coli-like bacteria in fecal samples. Format: in vivo, human. The protocol: as §1, §2
Test [2] can be described thus: Butyrate production in human volunteers on oral riboflavin. Format: in vivo. Conditions: orally administered riboflavin.
A further test concerns Clostridium group XIVa. Put plainly: Riboflavin intervention trial: FISH count of Clostridium group XIVa in fecal samples. In kind it is in vivo, human. Particulars: 8 volunteers, 100 mg/day oral riboflavin for two weeks. As for the experimental part:
as §1, §2

Test [3] concerns Faecalibacterium prausnitzii. Put plainly: Riboflavin intervention trial: FISH count of F. prausnitzii in fecal samples. In kind it is in vivo, human. As for the experimental part: as §1, §2

Regarding `O=C1O[C@H]([C@@H](O)CO)C(O)=C1O` [ascorbic acid], the “protective effect on faecalibacteria against ambient air exposure” value (“protective effect on faecalibacteria” for short) in the test with F. prausnitzii was “not observed”.

As for `N[C@@H](CS)C(=O)O` [cysteine], in the test on F. prausnitzii, the “protective effect on faecalibacteria” value is “provide the protective effect”.

In the case of `O=c1c(O)c(-c2ccc(O)c(O)c2)oc2cc(O)cc(O)c12` [quercitin], the “protective effect on faecalibacteria” value with F. prausnitzii is given as “not observed”.

As for `Cc1cc2nc3c(=O)[nH]c(=O)nc-3n(C[C@H](O)[C@H](O)[C@H](O)CO)c2cc1C` [riboflavin], the “number of Enterococci in fecal samples” value in the test with Enterococci is recorded as “did not increase during the intervention”. In addition, in test [1] (during riboflavin intake, 100 mg/day for two weeks, all individuals tested), the “number of E. coli(-like bacteria) in fecal samples” value is given as “decreased or remained the same”. Besides, in test [1] (upon administration of riboflavin, 100 mg/day), the “ratio of faecalibacteria to E. coli-like bacteria” value is reported as “the ratio shifted towards faecalibacteria”. The butyrate production result in test [2] was “enhanced”. In addition, the “number of Clostridium group XIVa bacteria in fecal samples” value with Clostridium group XIVa is “did not increase”. The “percentage F. prausnitzii of the total bacteria” value in test [3] (8 volunteers, 100 mg/day oral riboflavin for 14 days, feces) was “increased in 7 out of 8 samples”. The “number of faecalibacteria in fecal samples” value in test [3] (8 volunteers, 1 oral dose of 100 mg riboflavin per day for 14 days, pre, during, post intake, FISH) was “increased during intake and decreased again when the intake ceases”. The “ratio faecalibacteria/Clostridium group XIVa” value in test [3] (calculated from before and from during intake, 100 mg/day riboflavin) is reported as “increased in all cases”. In the test with F. prausnitzii, the “protective effect on faecalibacteria” value was “provide the protective effect”.
